Measured values taken from patent US11773087B2, “GLP-1R receptor agonist compound and use thereof” (SUZHOU VINCENTAGE PHARMA CO., LTD, priority 2020, dated 2023).
Where two headings read alike, the source gives them in different places.

Key:
human GLP-1R receptor = biological target: T1, human GLP-1R receptor (Homo sapiens, UniProt P43220); experiment: GLP-1R cAMP assay (HTRF, HEK293 cells expressing GLP-1R); type: cell-based; conditions: agonistic activity, GLP-1R HEK293 cells
T1 construct: expressed in transfected cells; host or cells: 'GLP-1R cells' (frozen vial)
Protocol: Test Embodiment 1: Activity Test of GLP-1R cAMP Assay
This experiment aims to verify the agonistic activity of the compound of the present disclosure on human GLP-1R receptor.
Compounds were diluted 4-fold starting at 100 μM from DMSO using Bravo for a total of 10 points.
The reference compound polypeptide GLP-1 (7-37) was diluted 4-fold starting from 500 nM in DMSO using Bravo for a total of 10 points.
b) Preparation of Cell Suspension: • 1) 1 vial of GLP-1R cells was quickly thawed in a 37° C. water bath. • 2) The suspension of the cells was transferred to 10 mL of HBSS in a 15 mL conical tube. • 3) The cells were centrifuged at 1000 rpm for 5 min at room temperature to precipitate the cells. • 4) The supernatant was gently aspirated, and being careful not to aspirate the cells. • 5) The cells were relaxed by flicking the precipitation, and then the cell precipitation was re-suspended in 10 mL of HBSS. A sterile pipette was used to move fluid up and down to remove clumps. • 6) The concentration of cells was counted and the cell viability on Vi-cell was determined. • 7) GLP-1R cells were re-suspended in the test buffer at a concentration of 2.0×E5/mL cells. • 8) 10 μL of GLP-1R cell was transferred to OptiPlate-384 well plate.
c) Transfer of Compound: • 1) 100 nL of compound was transferred to OptiPlate-384 plate using Echo Transfer. • 2) The plate was rotated at 1000 rpm for 5 seconds.
d) HTRF cAMP Analysis of Agonists: • 1) The plate was incubated at room temperature for 30 minutes before adding detection reagents. • 2) An electric multi-channel pipette was used to add 10 μL of detection reagents respectively. • 3) The 384 well plate was covered with TopSeal-A membrane and incubated for 60 min at room temperature.
TopSeal-A was unloaded and read on EnVision.

[1] = Pharmacokinetic evaluation in rats (gavage); type: in vivo; conditions: rat, 10 mg/kg single oral gavage, plasma
Protocol: Test Embodiment 2: Pharmacokinetic Evaluation in Rats
The drug concentrations in the plasma of rats were tested at different times after the administration of the compounds by gavage using rats as test animals. The pharmacokinetic behavior of the compounds of the present disclosure in rats was studied and their pharmacokinetic characteristics were evaluated. In each group of embodiments, 3 rats with similar body weight were selected and administered orally at a dose of 10 mg/kg for a single administration. Blood was collected from animals at 15 min, 30 min, 1 h, 2 h, 4 h, 6 h, 8 h, 12 h, 24 h time points after administration. The LC-MS/MS analysis method was used to detect the content of the compound in plasma, and the lower limit of quantification of the method was 20 ng/mL. Concentration data in plasma was counted using the metabolic kinetic data analysis software WinNonlin 7.0, and the pharmacokinetic parameters were calculated using the non-compartmental analysis (NCA), as shown in Table 2 below.
Drug configuration: A certain amount of drug was taken, added with 2% Klucel LF+0.1% Tween 80 aqueous solution to prepare a clear solution or a uniform suspension.
Administration: Rats were administered by gavage after overnight fasting at a dose of 10 mg/kg.
Operation: Rats were administered by gavage, and blood was collected from the tail vein before administration and 15 min, 30 min, 1 h, 2 h, 4 h, 6 h, 8 h, 12 h, 24 h after administration, placed in heparinized sample tubes, centrifuged at 4° C., 3500 rpm for 10 min to separate plasma, stored at −20° C., and fed 2 hours after administration.
Determination of the content of test compounds in rat plasma after drug administration by gavage: 50 μL of plasma samples were thawed at room temperature, added with 130 μL of internal standard working solution (1000 ng/mL, acetonitrile, tolbutamide), vortexed for about 1 min and then centrifuged for 10 min at 4° C. and 13000 rpm. 50 μL of supernatant was mixed with 100 μL of 50% acetonitrile in water, and then the sample was injected for LC/MS/MS analysis.

[2] = Pharmacokinetic evaluation of cynomolgus monkey (IV and oral); type: in vivo, cynomolgus monkeys; conditions: for AUC(0-t): read-out: AUC0-24 h
Protocol: Test Embodiment 3: Pharmacokinetic Evaluation of Cynomolgus Monkey
The drug concentrations in the plasma of cynomolgus monkeys were tested at different times after intravenous injection and oral administration of the compounds using cynomolgus monkeys as test animals. The pharmacokinetic behavior of the compounds of the present disclosure in cynomolgus monkeys was studied and their pharmacokinetic characteristics were evaluated. In each group of embodiments, 2 cynomolgus monkeys with similar body weight were selected, administered at a dose of 1 mg/kg by intravenous injection and at a dose of 50 mg/kg by oral administration for a single administration.
Age of cynomolgus monkeys at the time of administration: about 2-4 years old; body weight: 3.0-4.6 kg at the beginning of administration; 4 monkeys; sex: male.
Intravenous group: The final concentration of 0.5 mg/mL was prepared for intravenous administration, and the preparation solvent was 5% DMSO+45% PEG400+50% water, and the preparation was in a clarified solution.
Oral group: The final concentration of 10 mg/mL was prepared for oral administration, and the preparation solvent was 5% DMSO+45% PEG400+50% water, and the preparation was in homogeneous suspension.
Blood was collected from animals at 5 min, 15 min, 30 min, 1 h, 2 h, 4 h, 7 h, 12 h, 24 h time points after administration. The LC-MS/MS analysis method was used to detect the content of the compound in plasma, and the lower limit of quantification of the method was 20 ng/mL. Concentration data in plasma was counted using the metabolic kinetic data analysis software WinNonlin 7.0, and the pharmacokinetic parameters were calculated using the non-compartmental analysis (NCA), as shown in Table 3 below.
Determination of the content of test compounds in the plasma of cynomolgus monkeys after drug administration: After blood samples were collected, placed in a marked ice-bath centrifuge tube, and rapidly centrifuged to separate the plasma. Centrifugation conditions: 4000 rpm, 10 minutes, 4° C., and plasma was stored at −40° C. or less for testing.

T1 sequence (P43220 24-463): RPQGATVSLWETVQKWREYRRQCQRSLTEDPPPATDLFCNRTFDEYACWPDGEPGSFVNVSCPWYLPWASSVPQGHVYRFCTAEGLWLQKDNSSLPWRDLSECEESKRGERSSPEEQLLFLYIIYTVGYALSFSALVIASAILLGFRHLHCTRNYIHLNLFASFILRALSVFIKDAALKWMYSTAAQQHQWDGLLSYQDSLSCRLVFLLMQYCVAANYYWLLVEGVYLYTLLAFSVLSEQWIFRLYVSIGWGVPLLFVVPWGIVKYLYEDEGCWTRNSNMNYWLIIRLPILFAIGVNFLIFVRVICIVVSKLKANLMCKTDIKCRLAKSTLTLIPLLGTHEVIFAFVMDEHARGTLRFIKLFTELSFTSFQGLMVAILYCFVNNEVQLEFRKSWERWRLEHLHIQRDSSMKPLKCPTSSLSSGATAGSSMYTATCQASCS

SMILES	EC50 (human GLP-1R receptor) [nM]	also measured
Cn1c(CN2CCC(c3ccccc3OCc3ccc(Cl)cc3F)CC2)nc2ccc(C(=O)O)cc21 [Compound 24]	> 100	
O=C(O)c1ccc2nc(CN3CCC(c4ccc(F)cc4OCc4ccc(Cl)cc4F)CC3)n(C[C@@H]3CCO3)c2c1 [Compound 13]	5.8	
COc1cccc(C2CCN(Cc3nc4ccc(C(=O)O)cc4n3C[C@@H]3CCO3)CC2)c1OCc1ccc(Cl)cc1F [Compound 5]	15	
CC1CN(Cc2nc3ccc(C(=O)O)cc3n2C[C@@H]2CCO2)CC(C)C1c1ccccc1OCc1ccc(Cl)cc1F (some centres unmarked) [Compound 30]	> 100	
CC(Oc1ccccc1C1CCN(Cc2nc3ccc(C(=O)O)cc3n2C[C@@H]2CCO2)CC1)c1ccc(Cl)cc1F (some centres unmarked) [Compound 10]	26	
Cc1ccc(COc2ccccc2C2CCN(Cc3nc4ccc(C(=O)O)cc4n3C[C@@H]3CCO3)CC2)c(F)c1 [Compound 12]	1	AUC(0-inf) [1]: 1320 ng·h/mL; Cmax [1]: 1020 ng/mL; Tmax [1]: 15 min; half-life [1]: 161 min
CC1CN(Cc2nc3ccc(C(=O)O)cc3n2C[C@@H]2CCO2)CCC1c1ccccc1OCc1ccc(Cl)cc1F (some centres unmarked) [Compound 29]	> 100	
O=C(O)c1ccc2nc(CN3CCC(c4cccc(F)c4OCc4ccc(Cl)cc4F)CC3)n(C[C@@H]3CCO3)c2c1 [Compound 4]	0.7	AUC(0-inf) [1]: 417 ng·h/mL; Cmax [1]: 90 ng/mL; Tmax [1]: 49.8 min; half-life [1]: 127 min
CCn1cncc1Cn1c(CN2CCC(c3ccccc3OCc3ccc(Cl)cc3F)CC2)nc2ccc(C(=O)O)cc21 [Compound 25]	> 100	
O=C(O)c1ccc2nc(C3(N4CCC(c5ccccc5OCc5ccc(Cl)cc5F)CC4)CC3)n(C[C@@H]3CCO3)c2c1 [Compound 23]	> 100	
O=C(O)c1ccc2nc(CN3CCC(c4ccccc4OCc4ccc(Cl)cc4Cl)CC3)n(C[C@@H]3CCO3)c2c1 [Compound 11]	2.9	
[2H]C([2H])(c1nc2ccc(C(=O)O)cc2n1C[C@@H]1CCO1)N1CCC(c2ccccc2OCc2ccc(Cl)cc2F)CC1 [Compound 27]	2.3	
N#Cc1ccc(COc2cccc(C3CCN(Cc4nc5ccc(C(=O)O)cc5n4C[C@@H]4CCO4)CC3)n2)c(F)c1 [PF-06882961, reference compound]		AUC(0-inf) [1]: 179 ng·h/mL; Cmax [1]: 55 ng/mL; Tmax [1]: 25.2 min; half-life [1]: 413 min; F ([2]; 50 mg/kg PO vs 1 mg/kg IV, oral bioavailability): 8.0%; Cmax ([2]; male, 1 mg/kg IV, plasma): 2220 ng/mL; Tmax ([2]; male, 1 mg/kg IV, plasma): 4.98 min; clearance ([2]; male, 1 mg/kg IV, plasma): 15.9 mL/min/kg; half-life ([2]; male, 1 mg/kg IV, plasma): 68.4 min; AUC(0-t) ([2]; male, 1 mg/kg IV, plasma): 1070 ng·h/mL; Cmax ([2]; male, 50 mg/kg PO, plasma): 2050 ng/mL; Tmax ([2]; male, 50 mg/kg PO, plasma): 105 min; half-life ([2]; male, 50 mg/kg PO, plasma): 654 min; concentration at 24 h ([2]; male, 50 mg/kg PO, plasma, 24 h, read-out: C24 h): 41.4 ng/mL; AUC(0-t) ([2]; male, 50 mg/kg PO, plasma): 4330 ng·h/mL
O=C(O)c1ccc2nc(CN3CCC(c4cc(F)ccc4OCc4ccc(Cl)cc4F)CC3)n(C[C@@H]3CCO3)c2c1 [Compound 14]	3.7	
N#Cc1ccc(COc2ccccc2C2CCN(Cc3nc4ccc(C(=O)O)cc4n3C[C@@H]3CCO3)CC2)c(F)c1 [Compound 1]	3.4	
O=C(O)c1ccc2nc(CN3CCC(c4ccccc4NCc4ccc(Cl)cc4F)CC3)n(C[C@@H]3CCO3)c2c1 [Compound 15]	7.5	

SMILES	EC50 (human GLP-1R receptor) [nM]	also measured
O=C(O)c1ccc2nc(CN3CCC(c4ccccc4OCc4ccc(Cl)cn4)CC3)n(C[C@@H]3CCO3)c2c1 [Compound 9]	34.8	
O=C(O)c1ccc2nc(Cc3ccc(-c4ccccc4OCc4ccc(Cl)cc4F)cc3)n(C[C@@H]3CCO3)c2c1 [Compound 20]	24.6	
O=C(O)c1ccc2nc(CN3CCC(c4ccccc4SCc4ccc(Cl)cc4F)CC3)n(C[C@@H]3CCO3)c2c1 [Compound 17]	53	
O=C(O)c1ccc2nc(CC3CCC(c4ccccc4OCc4ccc(Cl)cc4F)CC3)n(C[C@@H]3CCO3)c2c1 (some centres unmarked) [Compound 21]	> 100	
O=C(O)c1ccc2nc(CN3CCC(c4ccccc4OCc4ccc(Cl)cc4F)CC3)n(C[C@@H]3CCO3)c2n1 [Compound 22]	2.1	
O=C(O)c1ccc2nc(CN3CCN(c4ccccc4OCc4ccc(Cl)cc4F)CC3)n(C[C@@H]3CCO3)c2c1 [Compound 18]	10.7	
O=C(O)c1ccc2nc(CN3CCC(c4c(F)cccc4OCc4ccc(Cl)cc4F)CC3)n(C[C@@H]3CCO3)c2c1 [Compound 6]	8.1	
CN(Cc1ccc(Cl)cc1F)c1ccccc1C1CCN(Cc2nc3ccc(C(=O)O)cc3n2C[C@@H]2CCO2)CC1 [Compound 16]	> 100	
[2H]C([2H])(Oc1ccccc1C1CCN(Cc2nc3ccc(C(=O)O)cc3n2C[C@@H]2CCO2)CC1)c1ccc(Cl)cc1F [Compound 26]	1.8	
O=C(O)c1ccc2nc(CC3CCN(c4ccccc4OCc4ccc(Cl)cc4F)CC3)n(C[C@@H]3CCO3)c2c1 [Compound 19]	> 100	
O=C(O)c1ccc2nc(CN3CCC(c4cccc(F)c4OCc4ccccc4F)CC3)n(C[C@@H]3CCO3)c2c1 [Compound 7]	5	
O=C(O)c1ccc2nc(CN3CCC(c4cccnc4OCc4ccc(Cl)cc4F)CC3)n(C[C@@H]3CCO3)c2c1 [Ref-02, reference compound]	1	AUC(0-inf) [1]: 229 ng·h/mL; Cmax [1]: 171 ng/mL; Tmax [1]: 15 min; half-life [1]: 331 min
O=C(O)c1ccc2nc(CN3CCC(c4ccccc4OCc4ccc(F)cc4F)CC3)n(C[C@@H]3CCO3)c2c1 [Compound 8]	3.2	
O=C(O)c1ccc2nc(CN3CCC(c4cccc(OCc5ccc(Cl)cc5F)n4)CC3)n(C[C@@H]3CCO3)c2c1 [Ref-01, reference compound]	1	AUC(0-inf) [1]: 351 ng·h/mL; Cmax [1]: 105 ng/mL; Tmax [1]: 19.8 min; half-life [1]: 192 min
CC1(c2ccccc2OCc2ccc(Cl)cc2F)CCN(Cc2nc3ccc(C(=O)O)cc3n2C[C@@H]2CCO2)CC1 [Compound 28]	> 100	
N#Cc1ccc(COc2c(F)cccc2C2CCN(Cc3nc4ccc(C(=O)O)cc4n3C[C@@H]3CCO3)CC2)c(F)c1 [Compound 2]	0.8	
